Measured values: ChEMBL document CHEMBL5465560, “Selectivity Literature for EUbOPEN Chemogenomic Library” (2024)

Key:
[1] = biological target: Histone-lysine N-methyltransferase 2A (Homo sapiens) (UniProt Q03164); experiment: Selectivity interaction (Methyltransferase screen (radiometric assays, panel of 8 PRMTs, 21 protein lysine methyltransferases, 3 DNA methyltransferases, and one RNA methyltransferase)) EUB0000271b MLL
[2] = biological target: T1, Serine/threonine-protein kinase Nek1 (Homo sapiens) (UniProt Q96PY6); conditions: at 10 µM
T1 sequence (whole entry): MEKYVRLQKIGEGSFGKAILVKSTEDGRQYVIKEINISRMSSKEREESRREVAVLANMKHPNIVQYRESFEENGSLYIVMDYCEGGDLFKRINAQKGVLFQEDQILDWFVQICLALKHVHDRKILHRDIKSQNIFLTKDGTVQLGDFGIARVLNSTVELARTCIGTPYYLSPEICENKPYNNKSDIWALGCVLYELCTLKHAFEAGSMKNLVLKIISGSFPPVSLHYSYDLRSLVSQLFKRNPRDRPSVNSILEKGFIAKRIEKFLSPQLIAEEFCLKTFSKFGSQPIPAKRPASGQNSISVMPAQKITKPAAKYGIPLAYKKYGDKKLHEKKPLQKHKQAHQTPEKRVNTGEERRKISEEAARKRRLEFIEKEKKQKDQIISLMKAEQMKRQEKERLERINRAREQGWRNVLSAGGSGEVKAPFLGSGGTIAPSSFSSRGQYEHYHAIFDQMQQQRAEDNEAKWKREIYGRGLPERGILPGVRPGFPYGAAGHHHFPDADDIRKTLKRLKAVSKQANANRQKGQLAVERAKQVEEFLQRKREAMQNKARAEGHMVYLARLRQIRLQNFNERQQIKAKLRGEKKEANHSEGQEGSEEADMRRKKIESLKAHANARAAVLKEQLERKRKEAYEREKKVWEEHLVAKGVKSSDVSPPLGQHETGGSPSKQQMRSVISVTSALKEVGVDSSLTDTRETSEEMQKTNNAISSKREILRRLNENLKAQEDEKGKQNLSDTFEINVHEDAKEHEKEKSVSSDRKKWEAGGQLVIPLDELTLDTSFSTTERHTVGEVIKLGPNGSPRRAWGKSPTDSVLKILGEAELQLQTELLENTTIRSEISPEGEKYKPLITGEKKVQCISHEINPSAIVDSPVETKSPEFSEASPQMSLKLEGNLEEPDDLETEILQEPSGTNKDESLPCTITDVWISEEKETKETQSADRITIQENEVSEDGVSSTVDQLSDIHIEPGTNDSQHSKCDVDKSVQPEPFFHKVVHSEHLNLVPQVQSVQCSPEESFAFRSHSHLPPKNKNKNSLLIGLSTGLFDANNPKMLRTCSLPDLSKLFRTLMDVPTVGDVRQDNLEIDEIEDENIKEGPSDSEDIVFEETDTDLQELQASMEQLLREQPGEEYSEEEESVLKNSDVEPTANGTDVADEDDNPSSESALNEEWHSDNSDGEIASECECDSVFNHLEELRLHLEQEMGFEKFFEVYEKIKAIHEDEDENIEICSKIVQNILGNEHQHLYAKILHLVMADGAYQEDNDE

[3] = biological target: Tyrosine-protein kinase FRK (Homo sapiens) (UniProt P42685); experiment: Selectivity interaction (KinomeScan (DiscoverX)) EUB0000607a FRK; conditions: at 10 µM
[4] = biological target: Phosphatidylinositol 4,5-bisphosphate 3-kinase catalytic subunit gamma isoform (Homo sapiens) (UniProt P48736); experiment: Selectivity interaction (KinomeScan (DiscoverX)) EUB0000607a PIK3CG; conditions: at 10 µM
Sequence of Phosphatidylinositol 4,5-bisphosphate 3-kinase catalytic subunit gamma isoform (Homo sapiens) (P48736 whole entry, looked up, canonical isoform): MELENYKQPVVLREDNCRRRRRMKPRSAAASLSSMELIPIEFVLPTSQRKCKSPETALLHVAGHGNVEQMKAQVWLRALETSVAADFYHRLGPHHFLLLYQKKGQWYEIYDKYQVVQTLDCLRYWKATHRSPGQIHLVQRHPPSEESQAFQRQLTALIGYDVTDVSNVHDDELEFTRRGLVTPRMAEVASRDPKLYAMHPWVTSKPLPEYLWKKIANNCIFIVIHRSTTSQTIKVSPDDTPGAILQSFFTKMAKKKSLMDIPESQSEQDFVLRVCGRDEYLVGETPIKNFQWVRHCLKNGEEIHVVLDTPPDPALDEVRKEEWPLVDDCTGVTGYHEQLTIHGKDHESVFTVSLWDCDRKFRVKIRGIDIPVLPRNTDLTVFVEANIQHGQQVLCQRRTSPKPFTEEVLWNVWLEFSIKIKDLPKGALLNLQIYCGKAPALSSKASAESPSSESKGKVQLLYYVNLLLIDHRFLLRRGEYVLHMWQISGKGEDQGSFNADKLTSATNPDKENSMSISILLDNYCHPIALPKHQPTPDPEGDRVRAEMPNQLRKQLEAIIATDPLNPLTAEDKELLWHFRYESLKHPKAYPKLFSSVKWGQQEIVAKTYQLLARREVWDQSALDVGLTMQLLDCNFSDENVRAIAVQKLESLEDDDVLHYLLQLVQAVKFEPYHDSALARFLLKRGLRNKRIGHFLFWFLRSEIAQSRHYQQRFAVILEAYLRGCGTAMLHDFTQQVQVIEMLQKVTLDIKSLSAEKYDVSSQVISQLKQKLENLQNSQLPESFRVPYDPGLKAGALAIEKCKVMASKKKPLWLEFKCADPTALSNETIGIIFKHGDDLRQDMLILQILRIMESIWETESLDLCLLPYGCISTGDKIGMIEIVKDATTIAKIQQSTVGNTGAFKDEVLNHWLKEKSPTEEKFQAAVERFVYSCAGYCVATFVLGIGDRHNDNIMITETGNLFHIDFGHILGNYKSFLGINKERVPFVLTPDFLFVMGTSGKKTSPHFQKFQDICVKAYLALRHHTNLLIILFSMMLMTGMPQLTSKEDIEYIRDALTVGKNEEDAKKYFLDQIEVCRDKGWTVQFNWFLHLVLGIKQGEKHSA

[5] = biological target: Ribosomal protein S6 kinase alpha-6 (Homo sapiens, UniProt Q9UK32); experiment: Selectivity interaction (KinomeScan (DiscoverX)) EUB0000607a RPS6KA6; conditions: at 10 µM
[6] = biological target: Casein kinase I isoform delta (Homo sapiens, UniProt P48730); experiment: Selectivity interaction (KinomeScan (DiscoverX)) EUB0001619a CSNK1D; conditions: at 1 µM
[7] = biological target: T2, Ephrin type-B receptor 2 (Homo sapiens) (UniProt P29323); experiment: Selectivity interaction (KinomeScan (DiscoverX)) EUB0000045b EPHB2
T2 sequence (whole entry): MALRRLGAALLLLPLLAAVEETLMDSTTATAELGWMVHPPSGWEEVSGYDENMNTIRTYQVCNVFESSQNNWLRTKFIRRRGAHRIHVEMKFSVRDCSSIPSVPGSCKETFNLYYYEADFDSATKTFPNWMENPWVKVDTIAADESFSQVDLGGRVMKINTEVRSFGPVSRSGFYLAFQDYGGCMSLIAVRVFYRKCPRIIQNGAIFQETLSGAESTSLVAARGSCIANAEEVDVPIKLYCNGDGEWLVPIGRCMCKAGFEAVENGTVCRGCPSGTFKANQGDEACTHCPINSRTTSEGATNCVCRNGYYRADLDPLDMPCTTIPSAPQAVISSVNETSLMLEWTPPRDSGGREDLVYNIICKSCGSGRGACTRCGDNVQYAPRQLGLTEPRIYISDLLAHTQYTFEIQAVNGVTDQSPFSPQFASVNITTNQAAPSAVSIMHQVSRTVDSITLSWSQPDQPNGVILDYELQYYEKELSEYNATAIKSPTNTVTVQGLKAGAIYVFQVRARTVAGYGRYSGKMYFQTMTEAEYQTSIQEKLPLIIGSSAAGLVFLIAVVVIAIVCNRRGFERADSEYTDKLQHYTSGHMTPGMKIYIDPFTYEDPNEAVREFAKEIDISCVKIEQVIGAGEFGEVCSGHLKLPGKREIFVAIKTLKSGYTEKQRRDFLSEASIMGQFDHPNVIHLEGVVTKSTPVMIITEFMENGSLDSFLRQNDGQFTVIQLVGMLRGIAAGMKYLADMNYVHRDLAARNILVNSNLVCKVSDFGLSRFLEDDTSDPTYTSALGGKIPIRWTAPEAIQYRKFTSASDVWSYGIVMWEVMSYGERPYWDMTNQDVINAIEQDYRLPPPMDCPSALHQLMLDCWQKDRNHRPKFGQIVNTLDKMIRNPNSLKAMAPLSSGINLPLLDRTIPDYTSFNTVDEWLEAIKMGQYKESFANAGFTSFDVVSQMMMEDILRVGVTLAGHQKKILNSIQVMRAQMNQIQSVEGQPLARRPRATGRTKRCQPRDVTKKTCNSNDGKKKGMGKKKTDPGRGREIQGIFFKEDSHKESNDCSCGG

[8] = biological target: Tyrosine-protein kinase Fgr (Homo sapiens) (UniProt P09769); conditions: at 10 µM
[9] = biological target: Insulin receptor-related protein (Homo sapiens) (UniProt P14616); conditions: at 10 µM
[10] = biological target: Vasopressin V1a receptor (Homo sapiens) (UniProt P37288); experiment: Selectivity interaction (Panel of kinases, GPCRs, ion channels and transporters (enzymatic assay)) EUB0000223bCl AVPR1A
[11] = biological target: Serine/threonine-protein kinase WNK3 (Homo sapiens) (UniProt Q9BYP7); experiment: Selectivity interaction (KinomeScan (DiscoverX)) EUB0000695a WNK3; conditions: at 100 nM

Sequence of Histone-lysine N-methyltransferase 2A (Homo sapiens) (Q03164 1-2718 limits assumed): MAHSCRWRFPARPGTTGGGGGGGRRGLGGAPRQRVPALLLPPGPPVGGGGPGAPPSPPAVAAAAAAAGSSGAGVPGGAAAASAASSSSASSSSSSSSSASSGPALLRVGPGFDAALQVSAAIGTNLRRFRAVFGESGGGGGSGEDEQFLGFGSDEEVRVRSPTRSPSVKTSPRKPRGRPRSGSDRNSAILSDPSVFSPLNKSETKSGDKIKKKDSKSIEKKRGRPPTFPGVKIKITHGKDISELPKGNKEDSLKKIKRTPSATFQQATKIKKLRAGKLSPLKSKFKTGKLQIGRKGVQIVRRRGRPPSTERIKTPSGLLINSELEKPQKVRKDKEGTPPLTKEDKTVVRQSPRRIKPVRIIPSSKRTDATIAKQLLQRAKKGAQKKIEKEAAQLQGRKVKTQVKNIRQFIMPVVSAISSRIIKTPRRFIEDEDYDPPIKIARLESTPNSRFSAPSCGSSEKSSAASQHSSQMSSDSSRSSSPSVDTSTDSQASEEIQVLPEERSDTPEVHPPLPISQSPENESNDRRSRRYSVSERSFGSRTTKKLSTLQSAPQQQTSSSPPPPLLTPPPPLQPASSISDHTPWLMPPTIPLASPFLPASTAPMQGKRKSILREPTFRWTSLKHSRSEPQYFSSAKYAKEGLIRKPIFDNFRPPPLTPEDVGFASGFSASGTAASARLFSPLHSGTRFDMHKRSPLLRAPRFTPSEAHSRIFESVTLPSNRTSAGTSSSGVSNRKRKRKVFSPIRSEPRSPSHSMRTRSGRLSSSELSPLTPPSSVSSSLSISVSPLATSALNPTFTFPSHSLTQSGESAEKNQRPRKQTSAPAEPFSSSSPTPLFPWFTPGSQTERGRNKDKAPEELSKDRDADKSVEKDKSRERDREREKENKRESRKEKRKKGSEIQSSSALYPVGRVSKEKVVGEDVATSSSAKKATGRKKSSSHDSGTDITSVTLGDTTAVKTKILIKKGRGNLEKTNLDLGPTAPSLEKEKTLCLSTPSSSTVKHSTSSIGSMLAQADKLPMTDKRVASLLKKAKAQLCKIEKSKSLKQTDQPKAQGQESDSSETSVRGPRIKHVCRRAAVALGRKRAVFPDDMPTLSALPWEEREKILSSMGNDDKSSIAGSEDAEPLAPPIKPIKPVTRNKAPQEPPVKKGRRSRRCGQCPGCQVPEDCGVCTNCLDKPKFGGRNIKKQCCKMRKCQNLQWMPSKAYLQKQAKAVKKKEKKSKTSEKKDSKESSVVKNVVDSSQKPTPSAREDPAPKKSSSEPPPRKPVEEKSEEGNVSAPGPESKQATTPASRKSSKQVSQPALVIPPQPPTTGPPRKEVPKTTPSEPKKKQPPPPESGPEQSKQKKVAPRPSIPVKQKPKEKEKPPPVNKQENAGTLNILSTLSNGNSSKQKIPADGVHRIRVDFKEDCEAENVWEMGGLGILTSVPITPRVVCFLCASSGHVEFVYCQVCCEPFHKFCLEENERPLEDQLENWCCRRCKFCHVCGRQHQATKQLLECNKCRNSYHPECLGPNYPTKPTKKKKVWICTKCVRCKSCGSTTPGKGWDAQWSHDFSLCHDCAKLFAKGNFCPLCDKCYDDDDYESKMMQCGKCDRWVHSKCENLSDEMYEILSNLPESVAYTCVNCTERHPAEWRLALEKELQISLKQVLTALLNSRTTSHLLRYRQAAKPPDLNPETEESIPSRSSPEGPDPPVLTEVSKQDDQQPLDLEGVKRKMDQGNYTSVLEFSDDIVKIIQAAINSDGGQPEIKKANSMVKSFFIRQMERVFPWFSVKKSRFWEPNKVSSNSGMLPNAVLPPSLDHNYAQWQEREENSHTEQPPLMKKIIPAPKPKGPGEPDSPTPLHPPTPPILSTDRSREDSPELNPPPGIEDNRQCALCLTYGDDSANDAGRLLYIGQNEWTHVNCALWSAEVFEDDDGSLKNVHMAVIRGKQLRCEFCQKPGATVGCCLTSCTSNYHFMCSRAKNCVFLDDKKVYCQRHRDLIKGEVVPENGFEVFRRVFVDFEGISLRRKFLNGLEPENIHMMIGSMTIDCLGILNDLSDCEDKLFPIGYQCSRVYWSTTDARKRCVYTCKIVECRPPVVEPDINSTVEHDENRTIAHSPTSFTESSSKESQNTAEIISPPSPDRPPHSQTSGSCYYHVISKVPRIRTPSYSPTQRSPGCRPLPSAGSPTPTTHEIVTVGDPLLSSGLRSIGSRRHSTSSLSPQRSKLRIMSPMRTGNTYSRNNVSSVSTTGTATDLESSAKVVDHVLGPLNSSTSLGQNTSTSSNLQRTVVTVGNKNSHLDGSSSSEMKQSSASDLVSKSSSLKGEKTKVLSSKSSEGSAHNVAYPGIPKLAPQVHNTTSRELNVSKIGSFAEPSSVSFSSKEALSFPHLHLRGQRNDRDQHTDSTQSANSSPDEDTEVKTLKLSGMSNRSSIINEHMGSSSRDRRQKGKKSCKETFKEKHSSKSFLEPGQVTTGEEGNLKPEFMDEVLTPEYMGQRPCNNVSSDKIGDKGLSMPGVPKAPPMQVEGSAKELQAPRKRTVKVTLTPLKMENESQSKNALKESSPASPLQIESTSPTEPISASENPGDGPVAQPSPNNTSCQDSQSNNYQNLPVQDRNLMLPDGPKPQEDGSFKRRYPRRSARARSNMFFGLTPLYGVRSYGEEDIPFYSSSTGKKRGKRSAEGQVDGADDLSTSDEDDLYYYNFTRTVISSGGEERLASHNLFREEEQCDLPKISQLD
Sequence of Histone-lysine N-methyltransferase 2A (Homo sapiens) (Q03164 2719-3969 limits assumed): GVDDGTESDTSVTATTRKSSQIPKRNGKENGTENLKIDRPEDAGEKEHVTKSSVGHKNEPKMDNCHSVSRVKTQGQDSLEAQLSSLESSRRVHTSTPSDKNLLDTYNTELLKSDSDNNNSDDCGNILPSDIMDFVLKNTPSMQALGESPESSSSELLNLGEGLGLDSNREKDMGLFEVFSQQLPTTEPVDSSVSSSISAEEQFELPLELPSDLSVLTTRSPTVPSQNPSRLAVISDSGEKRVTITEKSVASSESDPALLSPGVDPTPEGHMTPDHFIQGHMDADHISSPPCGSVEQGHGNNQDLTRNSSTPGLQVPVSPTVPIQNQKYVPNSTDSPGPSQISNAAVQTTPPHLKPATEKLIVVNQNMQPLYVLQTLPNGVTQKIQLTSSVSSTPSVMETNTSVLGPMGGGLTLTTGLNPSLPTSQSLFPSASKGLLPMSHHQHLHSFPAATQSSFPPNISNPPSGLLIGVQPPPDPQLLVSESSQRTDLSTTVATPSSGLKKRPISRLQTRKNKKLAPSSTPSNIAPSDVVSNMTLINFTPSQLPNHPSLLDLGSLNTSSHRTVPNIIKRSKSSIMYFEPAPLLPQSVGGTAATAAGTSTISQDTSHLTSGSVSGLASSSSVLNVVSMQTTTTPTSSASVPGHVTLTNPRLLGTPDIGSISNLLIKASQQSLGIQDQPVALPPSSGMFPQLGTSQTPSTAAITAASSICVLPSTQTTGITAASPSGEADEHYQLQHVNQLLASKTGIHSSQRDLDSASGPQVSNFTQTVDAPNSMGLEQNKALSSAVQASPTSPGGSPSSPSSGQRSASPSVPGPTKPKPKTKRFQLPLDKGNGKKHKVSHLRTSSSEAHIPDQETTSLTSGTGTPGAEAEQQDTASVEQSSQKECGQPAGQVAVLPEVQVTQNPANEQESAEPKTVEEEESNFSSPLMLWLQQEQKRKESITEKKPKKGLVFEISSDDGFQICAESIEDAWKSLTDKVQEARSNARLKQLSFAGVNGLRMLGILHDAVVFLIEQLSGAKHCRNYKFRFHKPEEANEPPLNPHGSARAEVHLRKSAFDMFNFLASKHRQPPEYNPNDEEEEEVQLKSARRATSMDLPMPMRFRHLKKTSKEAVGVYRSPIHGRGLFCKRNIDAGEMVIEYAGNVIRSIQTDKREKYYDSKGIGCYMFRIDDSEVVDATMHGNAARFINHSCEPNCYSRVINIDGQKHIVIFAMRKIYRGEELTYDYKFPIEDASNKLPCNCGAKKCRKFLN

Cc1cc(C)cc([C@@H]2c3cc(C)ccc3NC(=O)CN2C(=O)c2ccc(Br)s2)c1
% of activity ([1]; at 1 µM): 99.7% | % of activity ([1]; at 10 µM): 103%

CCN(CC)CCCCNc1ncc2cc(-c3cc(OC)cc(OC)c3)c(NC(=O)NC(C)(C)C)nc2n1
% of control [2]: 100%

CNC(=O)Nc1ccc(-c2nc(N3CC4CCC(C3)O4)c3cnn(C4CCC5(CC4)OCCO5)c3n2)cc1
% of control [3]: 68% | % of control [4]: 72% | % of control [5]: 84%

N#Cc1cccc(-c2c[nH]c3ncnc(N4CCOCC4)c23)c1
% of control [6]: 100%

C=CC(=O)Nc1cc(-n2c(=O)ccc3cnc4ccc(-c5ccc(NS(C)(=O)=O)cc5)cc4c32)ccc1C
% of control ([7]; at 1 µM): 80% | % of control ([7]; at 10 µM): 95%

Cc1cc([C@@H](C)Nc2ccccc2C(=O)O)c2nc(N3CCOCC3)cc(=O)n2c1 [AZD-6482]
% of control [8]: 95% | % of control [9]: 100%

COc1cc(C(=O)N2CC[C@@H](O)[C@@H](N)C2)cc2nc(-c3cc4ccccc4n3CC3CC3)n(C)c12
pXC50 [10]: 4.6 M

Cc1cc(F)c(C(=O)Nc2cccc(-c3nncn3C(C)C)n2)cc1-n1cnc(C2CC2)c1
% of control [11]: 100%
